Results taken from patent US6521596B1, “Lanthionine antibiotic compositions and method” (priority 1994, dated 2003).
Like-named read-outs stand apart in the source and are kept apart here. No end group written: not given here.

Tests used:
[1] = single substitution of Ile for Glu at position 4, versus unmodified subtilin; cited from earlier work
[2] = format: physicochemical
From the text: (§1) The mutacins of the present invention have an apparent Mr of about 2,500 Da as determined by high performance liquid chromatography using a size-exclusion column. This is a useful defining parameter which may be determined using the routinely employed technique of column chromatography. However, the highly purified mutacins may be found to have a slightly different exact molecular weights, depending on the technique used, such as the molecular weight of 3,244.64±1.15 Da determined by ion spray mass spectroscopy for the T8-derived mutacin as determined from the m/z values, wherein z is equal to 2, 3, or 4 for m / z values 1623, 1083 and 812, respectively (see FIG. 4). Furthermore, the mutacin is thermostable, as measured by, e.g., incubating an agar plug at 100° C. for 30 minutes and quantitating bacteriocidal activity. The mutacin is stable over a pH range of 4-10, as measured by incubating the purified mutacin for 24 hours in appropriate 0.1 M buffers, e.g., such as acetate, phosphate or glycine buffers, at room temperature, and tested for bacteriocidal activity.
(§2) Mutacin was sensitive to trypsin. After 10 min incubation with the protease, no activity in sample was detected. Control samples without trypsin retained their full activity under identical conditions. Mutacin was thermostable as analyzed by residual activity after incubation at 80° C. for 30 min, and by incubating at 100° C. in loading buffer.

[3] = format: physicochemical; remark: listed apart in the source
From the text: as §1
Purified mutacin was mixed with different 0.1 M buffers in range pH 4-11 (sodium acetate pH 4-6; sodium phosphate pH 7-8; glycine-NaOH pH 8-11). After one or 24 h incubation at room temperature, residual mutacin activity was assayed using the spot test described above. […]

trypsin = assay: Sensitivity to trypsin (residual mutacin activity); format: physicochemical
Experimental: Sensitivity to trypsin (Sigma Chemical Co., St. Louis, Mo.) was determined according to the manufacturer's recommendation by incubating purified mutacin (4096 BU) in 50 ml of 50 mM sodium phosphate buffer pH 7.5 with trypsin (2 mg) at room temperature. Samples were analyzed for residual mutacin activity at various time intervals.
as §2

[4] = Isoelectric point (electrophoretic mobility / isoelectric focusing); format: physicochemical; conditions: based on electrophoretic mobility
Actinomyces viscosus = assay: Deferred antagonism assay on trypticase soy-yeast agar plates; format: cell-based; conditions: zone of inhibition
Bacillus subtilis 1687 = assay: as above; format: cell-based; conditions: zone of inhibition
Clostridium sporogenes = assay: as above; format: cell-based; conditions: Clostridium sporogenes (ATCC 19606); zone of inhibition
Mycobacterium phlei = assay: as above; format: cell-based; conditions: zone of inhibition
Staphylococcus aureus = assay: as above; format: cell-based; set-up: key: S, sensitive (zone radius >2 mm); SS, zone radius >S; conditions: zone of inhibition
[5] = system: Streptococcus faecalis 78.4; assay: as above; format: cell-based; conditions: zone of inhibition
Streptococcus faecium = assay: as above; format: cell-based; conditions: zone of inhibition
Streptococcus lactis = assay: as above; format: cell-based; conditions: zone of inhibition
Streptococcus mitis = assay: as above; format: cell-based; conditions: zone of inhibition
[6] = system: Streptococcus mutans GS-5; assay: as above; format: cell-based; conditions: zone of inhibition
Streptococcus mutans 130 = assay: as above; format: cell-based; conditions: zone of inhibition
Streptococcus mutans 159 = assay: as above; format: cell-based; conditions: zone of inhibition
Streptococcus mutans WT = assay: as above; format: cell-based; conditions: zone of inhibition
Experimental: (§3) Mutacin production was detected by deferred antagonism technique on trypticase soy-yeast agar (TSAY) using S. sobrinus OMZ176, S. mutans 10449, or S. sanguis Ny101 as sensitive indicators (Parrot, et al., 1990). Mutacin present in liquid culture was quantified by spotting […] of 2-fold dilutions of mutacin in phosphate buffered saline (PBS) onto the surface of TSAY overlaid with indicator strain as described. Spots were allowed to dry for 1 h, then the plates were incubated anaerobically for 24 h. The lowest titer yielding a zone of inhibition having clear edges was defined as one bacteriocin unit (BU).
(§4) Biological activity may also be measured by overlaying thin layer chromatography or SDS-PAGE gels with an indicator strain.

Streptococcus sanguis = assay: as above; format: cell-based; conditions: zone of inhibition
Experimental: as §3, §4

Streptococcus rattus = assay: as above; format: cell-based; conditions: zone of inhibition
Streptococcus salivarius = assay: as above; format: cell-based; conditions: zone of inhibition
Streptococcus pyogenes = assay: as above; format: cell-based; set-up: key: S, sensitive (zone radius >2 mm); SS, zone radius >S; conditions: zone of inhibition
Streptococcus pneumoniae = assay: as above; format: cell-based; set-up: key: S, sensitive (zone radius >2 mm); SS, zone radius >S; conditions: zone of inhibition
[7] = system: S. sobrinus OMZ176, S. mutans 10449, or S. sanguis Ny101 as sensitive indicators; assay: Mutacin assay: spot test of 2-fold dilutions, bacteriocin units (BU); format: cell-based; conditions: bacteriocin units per mg total protein, at stages of purification
From the text: The isolated antimicrobial mutacin polypeptides of the invention are generally characterized as having substantial bacteriocidal activity. As used herein the term “substantial bacteriocidal activity” describes significant mutacin-directed bacterial killing, as measured by any one of a variety of assays. Bacteriocidal activity may be advantageously examined and quantified by the deferred antagonism technique on trypticase soy-yeast agar (TSAY) using S. sobrinus OMZ176 or S. sanguis Ny101 as sensitive indicators (Parrot, et al., 1990). A unit of bacteriocidal activity (BU), present in liquid culture, is described as the lowest titer yielding a clear lytic-like zone of inhibition having clear edges and greater than 10 mm in diameter. Chikindas et al. describes arbitrary units (AU) of activity, which are essentially identical to bacteriocidal activity units. […]
as §3, with “Spots were allowed to dry for 1 h, then the plates were incubated anaerobically for 24 h. The lowest titer yielding a zone of inhibition having clear edges was defined as one bacteriocin unit (BU).” left out

For `C=C1NC(=O)CC[C@@H](C(=O)O)NC(=O)[C@H](NC(=O)[C@H](CCCCN)NC(=O)[C@@H](N)Cc2c[nH]c3ccccc23)CSC[C@@H](C(=O)N[C@@H]2C(=O)N3CCC[C@H]3C(=O)NCC(=O)N[C@H](C(=O)N[C@H](C(=O)N[C@@H]3C(=O)NCC(=O)N[C@@H](C)C(=O)N[C@@H](CC(C)C)C(=O)N[C@@H](CCC(N)=O)C(=O)N/C(=C/C)C(=O)N[C@H](C(=O)N[C@@H](Cc4ccccc4)C(=O)N[C@@H](CC(C)C)C(=O)N[C@@H](CCC(N)=O)C(=O)N[C@@H]4C(=O)N[C@@H](CC(C)C)C(=O)N[C@H]5C(=O)N[C@@H](CSC4C)C(=O)NC(=O)[C@H](CC(N)=O)N[C@H](C(=O)N[C@@H](CCCCN)C(=O)N[C@H](C(=O)NC(=C)C(=O)N[C@@H](CCCCN)C(=O)O)[C@@H](C)CC)CSC5C)CSC3C)C(C)C)CSC2C)N[C@@H](CC(C)C)C(=O)NC1=O` (stereo partly shown) [subtilin], the “increase of the biological half-life” value [1] is given as 57 fold.
For “Mutacin: lanthionine-containing polypeptide antibiotic (lantibiotic) purified from Streptococcus mutans T8 or UA96; N-terminus Asn Arg Trp Trp Gln Gly Val Val (NRWWQGVVPTVSYECRMNSWQHVFTCC; cysteine pairing not given here; also: lanthionine-containing lantibiotic, lanthionines not placed; UniProt O54329 27-53, looked up)”, the “Temperature (thermostable)” value [2] was “thermostable > 100 °C”, the “thermostability, residual activity after incubation” value [2] was “thermostable” and the “Temperature (thermostable)” value ([2]; listed as mutacin) was “up to 100 °C”. The “pH (stable range)” value ([3]; listed as mutacin) was 4-10, the “residual activity after incubation at pH 11” value ([3]; pH 11, 0.1 M glycine-NaOH, one or 24 h at room temperature, spot test) was “about 50%” and the “Trypsin (sensitivity)” value (trypsin) was “sensitive”. For the same compound, the “residual mutacin activity after incubation with trypsin” value (trypsin; 10 min, 4096 BU mutacin, trypsin 2 mg, 50 mM sodium phosphate pH 7.5, room temperature) was “no activity”, the “pI (isoelectric point)” value [4] was “≧8.4 (based on electrophoretic” and the Sensitivity (Actinomyces viscosus) was “S (S, sensitive (zone radius >2 mm))”. For the same compound, the Sensitivity (Bacillus subtilis 1687) was “S (S, sensitive (zone radius >2 mm))”, the Sensitivity (Clostridium sporogenes) was “S (S, sensitive (zone radius >2 mm))” and the Sensitivity (Mycobacterium phlei) was “S (S, sensitive (zone radius >2 mm))”. The Sensitivity (Staphylococcus aureus) was “SS”, the Sensitivity [5] was “S (S, sensitive (zone radius >2 mm))” and the Sensitivity (Streptococcus faecium) was “S (S, sensitive (zone radius >2 mm))”. For the same compound, the Sensitivity (Streptococcus lactis) was “S (S, sensitive (zone radius >2 mm))”, the Sensitivity (Streptococcus mitis) was “S (S, sensitive (zone radius >2 mm))” and the Sensitivity [6] was “S (S, sensitive (zone radius >2 mm))”. The Sensitivity (Streptococcus mutans 130) was “S (S, sensitive (zone radius >2 mm))”, the Sensitivity (Streptococcus mutans 159) was “S (S, sensitive (zone radius >2 mm))” and the Sensitivity (Streptococcus mutans WT) was “S (S, sensitive (zone radius >2 mm))”. The Sensitivity (Streptococcus sanguis) was “S (S, sensitive (zone radius >2 mm))”, the Sensitivity (Streptococcus rattus) was “S (S, sensitive (zone radius >2 mm))” and the Sensitivity (Streptococcus salivarius) was “S (S, sensitive (zone radius >2 mm))”. The Sensitivity (Streptococcus pyogenes) was “SS” and the Sensitivity (Streptococcus pneumoniae) was “SS”.
For “Water precipitate from 8M urea: final preparation of mutacin, solubilized in 8 M urea and precipitated with water; over 90% pure (NRWWQGVVPTVSYECRMNSWQHVFTCC; cysteine pairing not given here; also: lanthionine-containing lantibiotic, lanthionines not placed; UniProt O54329 27-53, looked up)”, the Spec. activity [7] was 150,187 BU/mg.
